Reference: US20220332708A1 (Cytokinetics, Inc., priority 2021, published 2022)

tested on: Bovine cardiac myofibrils; assay: Dose-dependent myofibril ATPase modulation (calcium-buffered, pyruvate kinase and lactate dehydrogenase-coupled ATPase assay at pCa25); format: biochemical; settings: concentration at which ATPase activity was 1.4-fold higher than the bottom of the dose curve, mean of a minimum of two independent tests
Protocol: In Vitro Model of Dose-Dependent Myofibril ATPase Modulation
Dose responses were measured using a calcium-buffered, pyruvate kinase and lactate dehydrogenase-coupled ATPase assay containing the following reagents (concentrations expressed are final assay concentrations): Potassium PIPES (12 mM), MgCl2 (2 mM), ATP (1 mM), DTT (1 mM), BSA (0.1 mg/ml), NADH (0.5 mM), PEP (1.5 mM), pyruvate kinase (4 U/ml), lactate dehydrogenase (8 U/ml), and antifoam (90 ppm). The pH was adjusted to 6.80 at 22° C. by addition of potassium hydroxide. Calcium levels were controlled by a buffering system containing 0.6 mM EGTA and varying concentrations of calcium, to achieve a free calcium concentration of 1×10^−4 M to 1×10^−8 M.
Bovine cardiac myofibrils were obtained by homogenizing the appropriate tissue in the presence of detergent. Such treatment removes membranes and majority of soluble cytoplasmic proteins but leaves intact cardiac sarcomeric acto-myosin apparatus. Concentrations of myofibrils were adjusted to achieve the necessary rate of ATP hydrolysis (typically 0.25-1.0 mg/ml).
Chemical entity dose responses were measured at the calcium concentration corresponding to 25% of maximal ATPase activity (pCa25), so a preliminary experiment was performed to test the response of the ATPase activity to free calcium concentrations in the range of 1×10^−4 M to 1×10^−8 M. Subsequently, the assay mixture was adjusted to the pCa25. Assays were performed by first preparing a dilution series of test chemical entity, each with an assay mixture containing potassium Pipes, MgCl2, BSA, DTT, pyruvate kinase, lactate dehydrogenase, myofibrils, antifoam, EGTA, CaCl2), and water. The assay was started by adding an equal volume of solution containing potassium Pipes, MgCl2, BSA, DTT, ATP, NADH, PEP, antifoam, and water. ATP hydrolysis was monitored by absorbance at 340 nm. The resulting dose response curve was fit by the 4 parameter equation y=Bottom+((Top−Bottom)/(1+((EC50/X)^Hill))). […] AC1.4 values reported in the table below are mean values based on a minimum of two independent tests.

| AC1.4 [µM] | Compound |
| --- | --- |
| 1.8965 | CNc1cc2c(cc1S(=O)(=O)N[C@H]1C[C@@H](Nc3ccc(F)cc3)C1)c(=O)[nH]c(=O)n2C [Compound 25, N-((cis)-3-((4-fluorophenyl)amino)cyclobutyl)-1-methyl-7-(methylamino)-2,4-dioxo-1,2,3,4-tetrahydroquinazoline-6-sulfonamide] |
| 2.215 | CNc1cc2c(cc1S(=O)(=O)N[C@H](C)Cc1cc3ccc(F)cc3[nH]1)c(=O)[nH]c(=O)n2C [Compound 26, (R)-N-(1-(6-fluoro-1H-indo1-2-yl)propan-2-yl)-1-methyl-7-(methylamino)-2,4-dioxo-1,2,3,4-tetrahydroquinazoline-6-sulfonamide] |
| 0.2504 | CNc1cc2nc(C)[nH]c(=O)c2cc1S(=O)(=O)NC1CCc2c([nH]c3ccccc23)C1 (stereo not shown) [Compound 28, 2-Methyl-7-(methylamino)-4-oxo-N-(2,3,4,9-tetrahydro-1H-carbazol-2-yl)-3,4-dihydroquinazoline-6-sulfonamide] |
| 8.204 | CNc1cc2nc(C)[nH]c(=O)c2cc1S(=O)(=O)NC(C)Cc1[nH]c2ccccc2c1C (stereo not shown) [Compound 29, 2-Methyl-N-(1-(3-methyl-1H-indo1-2-yl)propan-2-yl)-7-(methylamino)-4-oxo-3,4-dihydroquinazoline-6-sulfonamide] |
| 0.4832 | CCOC(=O)c1cc(S(=O)(=O)Nc2ccc(N3C[C@H](C)C[C@@H](C)C3)nc2)[nH]c1C [Compound 30, Ethyl 5-(N-(6-((3R,5R)-3,5-dimethylpiperidin-1-yl)pyridin-3-yl)sulfamoyl)-2-methyl-1H-pyrrole-3-carboxylate] |
| 1.274 | Cc1[nH]c(S(=O)(=O)NC23COc4cc(F)c(Cl)cc4C2C3)cc1C(=O)N1CC(C)(C#N)C1 (stereo not shown) [Compound 31, N-(6-chloro-5-fluoro-1,7b-dihydrocyclopropa[c]chromen-1a(2H)-yl)-4-(3-cyano-3-methylazetidine-1-carbonyl)-5-methyl-1H-pyrrole-2-sulfonamide] |
| 5.8178 | CNc1cc2nc(C)[nH]c(=O)c2cc1S(=O)(=O)N[C@H]1CCc2c([nH]c3ccccc23)C1 [Compound 32, (S)-2-Methyl-7-(methylamino)-4-oxo-N-(2,3,4,9-tetrahydro-1H-carbazol-2-yl)-3,4-dihydroquinazoline-6-sulfonamide] |
| 13.2484 | CNc1cc2nc(C)[nH]c(=O)c2cc1S(=O)(=O)NCCc1cc2ccccc2[nH]1 [Compound 34] |
| 6.2537 | CNC(=O)c1cc(S(=O)(=O)NC2CCc3c([nH]c4ccccc34)C2)[nH]c1C (stereo not shown) [Compound 35, N,2-dimethyl-5-(N-(2,3,4,9-tetrahydro-1H-carbazol-2-yl)sulfamoyl)-1H-pyrrole-3-carboxamide] |
| 6.922 | Cc1[nH]c(S(=O)(=O)NC2CCc3c([nH]c4ccccc34)C2)cc1C(=O)N(C)C (stereo not shown) [Compound 36, N,N,2-trimethyl-5-(N-(2,3,4,9-tetrahydro-1H-carbazol-2-yl)sulfamoyl)-1H-pyrrole-3-carboxamide] |
| 2.9421 | COCCNC(=O)c1cc(S(=O)(=O)NC2CCc3c([nH]c4ccccc34)C2)[nH]c1C (stereo not shown) [Compound 37, N-(2-methoxyethyl)-2-methyl-5-(N-(2,3,4,9-tetrahydro-1H-carbazol-2-yl)sulfamoyl)-1H-pyrrole-3-carboxamide] |
| 4.3985 | Cc1[nH]c(S(=O)(=O)N[C@@H]2CCc3c([nH]c4ccccc34)C2)cc1C(N)=O [Compound 38, (R)-2-methyl-5-(N-(2,3,4,9-tetrahydro-1H-carbazol-2-yl)sulfamoyl)-1H-pyrrole-3-carboxamide] |
| 1.722 | Cc1[nH]c(S(=O)(=O)N[C@@H]2CCc3c([nH]c4ccccc34)C2)cc1C(=O)NCCO [Compound 39, (R)-N-(2-hydroxyethyl)-2-methyl-5-(N-(2,3,4,9-tetrahydro-1H-carbazol-2-yl)sulfamoyl)-1H-pyrrole-3-carboxamide] |
| 0.0608 | Cc1[nH]c(S(=O)(=O)N[C@@H]2CCc3c([nH]c4ccccc34)C2)cc1C(=O)N1CC(C)(C)C1 [Compound 40, (R)-4-(3,3-dimethylazetidine-1-carbonyl)-5-methyl-N-(2,3,4,9-tetrahydro-1H-carbazol-2-yl)-1H-pyrrole-2-sulfonamide] |
| 0.2434 | Cc1[nH]c(S(=O)(=O)N[C@@H]2CCc3c([nH]c4ccccc34)C2)cc1C(=O)N1CCC1 [Compound 41, (R)-4-(azetidine-1-carbonyl)-5-methyl-N-(2,3,4,9-tetrahydro-1H-carbazol-2-yl)-1H-pyrrole-2-sulfonamide] |
| 0.06395 | Cc1[nH]c(S(=O)(=O)N[C@@H]2CCc3c([nH]c4ccccc34)C2)cc1C(=O)N1CC(F)(F)C1 [Compound 42, (R)-4-(3,3-difluoroazetidine-1-carbonyl)-5-methyl-N-(2,3,4,9-tetrahydro-1H-carbazol-2-yl)-1H-pyrrole-2-sulfonamide] |
| 0.1254 | Cc1[nH]c(S(=O)(=O)N[C@@H]2CCc3c([nH]c4ccccc34)C2)cc1C(=O)N1CC(C)(O)C1 [Compound 43] |
| 0.906 | Cc1[nH]c(S(=O)(=O)N[C@@H]2CCc3c([nH]c4ccccc34)C2)cc1C(=O)NCCF [Compound 44, (R)-N-(2-fluoroethyl)-2-methyl-5-(N-(2,3,4,9-tetrahydro-1H-carbazol-2-yl)sulfamoyl)-1H-pyrrole-3-carboxamide] |
| 0.4627 | Cc1[nH]c(S(=O)(=O)N[C@@H]2CCc3c([nH]c4ccccc34)C2)cc1C(=O)NCC(F)(F)F [Compound 45, (R)-2-methyl-5-(N-(2,3,4,9-tetrahydro-1H-carbazol-2-yl)sulfamoyl)-N-(2,2,2-trifluoroethyl)-1H-pyrrole-3-carboxamide] |
| 0.2277 | Cc1[nH]c(S(=O)(=O)N[C@@H]2CCc3c([nH]c4ccccc34)C2)cc1C(=O)N1CCCC1 [Compound 46, (R)-5-methyl-4-(pyrrolidine-1-carbonyl)-N-(2,3,4,9-tetrahydro-1H-carbazol-2-yl)-1H-pyrrole-2-sulfonamide] |
| 1.9857 | Cc1[nH]c(S(=O)(=O)N[C@@H]2CCc3c([nH]c4ccccc34)C2)cc1C(=O)N1CCCCC1 [Compound 47, (R)-5-methyl-4-(piperidine-1-carbonyl)-N-(2,3,4,9-tetrahydro-1H-carbazol-2-yl)-1H-pyrrole-2-sulfonamide] |
| 0.04675 | Cc1[nH]c(S(=O)(=O)N[C@@H]2CCc3c([nH]c4ccccc34)C2)cc1C(=O)N1CC(C)(C#N)C1 [Compound 48, (R)-4-(3-cyano-3-methylazetidine-1-carbonyl)-5-methyl-N-(2,3,4,9-tetrahydro-1H-carbazol-2-yl)-1H-pyrrole-2-sulfonamide] |
| 2.9024 | Cc1[nH]c(S(=O)(=O)Nc2ccc(N3C[C@H](C)C[C@@H](C)C3)nc2)cc1C(=O)N1CC(F)(F)C1 [Compound 49, 4-(3,3-Difluoroazetidine-1-carbonyl)-N-(6-((3R,5R)-3,5-dimethylpiperidin-1-yl)pyridin-3-yl)-5-methyl-1H-pyrrole-2-sulfonamide] |
| 0.5466 | Cc1[nH]c(S(=O)(=O)N[C@H]2C[C@H](c3cccc(Cl)c3)C2)cc1C(=O)N1CC(C)(C#N)C1 [Compound 50, N-((trans)-3-(3-chlorophenyl)cyclobutyl)-4-(3-cyano-3-methylazetidine-1-carbonyl)-5-methyl-1H-pyrrole-2-sulfonamide] |
| 2.8889 | Cc1[nH]c(S(=O)(=O)N[C@H]2C[C@H](c3cccc(F)c3)C2)cc1C(=O)N1CC(C)(C#N)C1 [Compound 51, 4-(3-Cyano-3-methylazetidine-1-carbonyl)-N-((trans)-3-(3-fluorophenyl)cyclobutyl)-5-methyl-1H-pyrrole-2-sulfonamide] |
| 1.4557 | Cc1[nH]c(S(=O)(=O)NC23CC(c4ccccc4)(C2)C3)cc1C(=O)N1CC(C)(C#N)C1 [Compound 52, 4-(3-Cyano-3-methylazetidine-1-carbonyl)-5-methyl-N-(3-phenylbicyclo[1.1.1]pentan-l-yl)-1H-pyrrole-2-sulfonamide] |
| 0.6222 | Cc1[nH]c(S(=O)(=O)N[C@H]2C[C@H](c3ccc(Cl)cc3)C2)cc1C(=O)N1CC(C)(C#N)C1 [Compound 53, N-((trans)-3-(4-chlorophenyl)cyclobutyl)-4-(3-cyano-3-methylazetidine-1-carbonyl)-5-methyl-1H-pyrrole-2-sulfonamide] |
| 2.9934 | Cc1[nH]c(S(=O)(=O)N[C@H]2C[C@@H](c3cccc(C(F)(F)F)c3)C2)cc1C(=O)N1CC(C)(C#N)C1 [Compound 54, 4-(3-Cyano-3-methylazetidine-1-carbonyl)-5-methyl-N-((cis)-3-(3-(trifluoromethyl)phenyl)cyclobutyl)-1H-pyrrole-2-sulfonamide] |
